Data on 20 compounds can be found in publication PMC3781056, “New Pyrazolopyrimidine Inhibitors of Protein Kinase D as Potent Anticancer Agents for Prostate Cancer Cells” (PLoS ONE, 2013).

Molecules are shown by their SMILES. Where a name gives a salt, the structure may show the parent alone. Some results are limits rather than exact numbers.

One data set has as its target T1, PKD1 (Homo sapiens, UniProt Q15139).
T1 construct: GST; purchased Enzo Life sciences (Farmingdale, NY)
T1 sequence (Q15139 1-912): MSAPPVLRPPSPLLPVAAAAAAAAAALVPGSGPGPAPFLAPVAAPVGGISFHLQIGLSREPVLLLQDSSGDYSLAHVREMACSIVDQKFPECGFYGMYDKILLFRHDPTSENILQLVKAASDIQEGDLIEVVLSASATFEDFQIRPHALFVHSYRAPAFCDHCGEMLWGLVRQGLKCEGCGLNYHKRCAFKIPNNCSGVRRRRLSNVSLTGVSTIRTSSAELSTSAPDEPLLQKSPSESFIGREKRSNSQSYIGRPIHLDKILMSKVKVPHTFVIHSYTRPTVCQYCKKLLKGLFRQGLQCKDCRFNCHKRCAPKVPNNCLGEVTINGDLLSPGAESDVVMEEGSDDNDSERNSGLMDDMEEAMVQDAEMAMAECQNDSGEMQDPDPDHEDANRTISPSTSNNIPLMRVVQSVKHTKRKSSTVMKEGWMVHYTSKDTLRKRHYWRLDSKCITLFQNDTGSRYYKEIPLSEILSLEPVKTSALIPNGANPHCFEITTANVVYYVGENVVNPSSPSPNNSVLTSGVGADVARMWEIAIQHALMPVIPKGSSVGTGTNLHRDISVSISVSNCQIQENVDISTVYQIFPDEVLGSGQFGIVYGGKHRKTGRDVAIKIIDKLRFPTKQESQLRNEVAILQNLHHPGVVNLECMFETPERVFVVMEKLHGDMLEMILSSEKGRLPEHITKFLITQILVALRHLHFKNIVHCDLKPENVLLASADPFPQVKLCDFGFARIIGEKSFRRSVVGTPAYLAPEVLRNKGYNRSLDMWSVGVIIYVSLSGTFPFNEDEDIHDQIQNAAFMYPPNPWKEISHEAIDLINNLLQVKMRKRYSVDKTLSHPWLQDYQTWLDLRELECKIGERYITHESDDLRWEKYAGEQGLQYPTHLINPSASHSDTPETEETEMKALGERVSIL
Kind of data set: In vitro radiometric PKD1 screening assay at 1 µM. The data set is classed as biochemical. The conditions noted are these: 1 µM; targeted kinase inhibitor library screen; relative to DMSO. The procedure: Phosphorylation of HDAC5 was detected in a kinase reaction having 1 µCi [γ-^32P] […] The reaction was incubated at 30°C for 10 minutes and 25 µL of the reaction was spotted on Whatman P81 filter paper. The filter paper was washed 3 times in 0.5% phosphoric acid, air dried and counted using Beckman LS6500 multipurpose scintillation counter. Percent PKD1 inhibition was graphed using GraphPad Prism software 5.0.
As for `Cl.Cl.O=S(=O)(NCCNC/C=C/c1ccc(Br)cc1)c1cccc2cnccc12` [H 89 Dihydrochloride], the “% PKD1 Inhibition” value amounted to 66%.

For the compound `NC(=O)c1ccc(-c2nc(-c3ccc4c(c3)OCCO4)c(-c3ccccn3)[nH]2)cc1` [D 4476], the “% PKD1 Inhibition” value is listed as 45%. Regarding `O=C1NC(=O)c2c1c1c3ccccc3n3c1c1c2c2ccccc2n1C1CCC3O1` [SB 218078], the “% PKD1 Inhibition” value is 85%. The same measure, in the same setting: as for `O=C1NC(=O)c2c1c1c3ccccc3[nH]c1c1[nH]c3ccccc3c21` [Arcyriaflavin A], the figure is 75%.

With `O=C1Nc2cc(Br)ccc2/C1=C1/Nc2ccccc2/C1=N\O` [BIO], the “% PKD1 Inhibition” value was determined as 47%. Same read-out and setting: as for `Cc1ccccc1C(=O)c1ccc(Nc2ccc(Br)cc2N)cc1Cl` [EO 1428], the figure is 68%. Same read-out and setting: as for `Fc1ccc(Cl)cc1-c1nc(Nc2ccncc2)c2nccnc2n1` [SD 208], the figure is 74%. On the same count and under the same terms, the figure for `CS(=O)(=O)O.Cn1cc(C2=C(c3cn(CCCSC(=N)N)c4ccccc34)C(=O)NC2=O)c2ccccc21` [Ro 31-8220 Mesylate] is 72%.

The same data set, now with this note: 1 µM; targeted kinase inhibitor library screen; relative to DMSO; read-out: % PKD1 Inhibition.
As usually defined, the inhibition is the drop in the measured response relative to a control, in per cent. `Oc1c2ccccc2c2c3c(cccc13)N=N2` [SP 600125]: the inhibition at 1 µM turned out to be 74%. Turning to `O=S(=O)(c1cccc2cnccc12)N1CCCNCC1` [Fasudil hydrochloride], the inhibition at 1 µM is 41%.

The same data set, now with this note: SAR of synthesized 1-NA-PP1 analogs.
As for `CNc1ncnc2c1c(-c1cccc3ccccc13)nn2C(C)(C)C` [Compound 1a, 1-(t-Butyl)-N-methyl-3-(naphthalen-1-yl)-1H-pyrazolo[3,4-d]pyrimidin-4-amine], the “PKD1 inhibitory activity, SAR result in words” value was “ablated the PKD1 activity”. As for `CNc1nc(Cl)nc2c1c(-c1ccc(OC(F)(F)F)cc1)nn2C` [Compound 1m, 6-Chloro-N,1-dimethyl-3-(4-(trifluoromethoxy)phenyl)-1H-pyrazolo[3,4-d]pyrimidin-4-amine], the “PKD1 inhibitory activity, SAR result in words” value is given as “did not show an increase in potency”. Same read-out and setting: as for `CNc1ncnc2c1c(-c1ccc(-c3ccccc3)cc1)nn2C` [Compound 1p, 3-([1,1'-Biphenyl]-4-yl)-N,1-dimethyl-1H-pyrazolo[3,4-d]pyrimidin-4-amine], the entry is “did not show an increase in potency”; as for `CNc1nc(Cl)nc2c1c(-c1ccc(OC)cc1)nn2C` [Compound 1k, 6-Chloro-3-(4-methoxyphenyl)-N,1-dimethyl-1H-pyrazolo[3,4-d]pyrimidin-4-amine], “did not show an increase in potency”. Same read-out and setting: the entry for `COc1ccc(-c2nn(C)c3nc(Cl)nc(N)c23)cc1` [Compound 1j, 6-Chloro-3-(4-methoxyphenyl)-1-methyl-1H-pyrazolo[3,4-d]pyrimidin-4-amine] is “did not show an increase in potency”.

The same data set, now with this note: read-out: inhibition of PKD1 activity.
As to `Cn1nc(-c2cccc3ccccc23)c2c(N)ncnc21` [Compound 1f, 1-Methyl-3-(naphthalen-1-yl)-1H-pyrazolo[3,4-d]pyrimidin-4-amine], the inhibition at 1 µM was determined as 32%.

A further data set has as its target T2, PKCα (Homo sapiens, UniProt P17252).
T2 construct: purchased SignalChem (Richmond, BC, Canada)
Kind of data set: In vitro radiometric PKC kinase assay. The class given is biochemical. Particulars: 0.1, 1 and 10 µM. The procedure: (§1) The PKC kinase assay was carried out by co-incubating 1 µCi [γ-^32P]ATP, 20 µM ATP, 50 ng of purified PKCα or PKCδ and 5 µg of myelin basic protein 4–14, 0.25 mg/mL bovine serum albumin, 0.1 mg/mL phosphatidylcholine/phosphatidylserine (80/20%) (1 µM), 1 µM phorbol dibutyrate in 50 µL of kinase buffer containing 50 mM Tris-HCl, pH 7.5, 4 mM MgCl2 and 10 mM β-mercaptoethanol. For the CAMK assay, 50 ng of CAMKIIα and 2 µg syntide-2 substrate in 50 µL kinase buffer were incubated with 0.1 mM MgCl2, 1 µCi of [γ-^32P] ATP, 70 µM ATP. 0.5 mM CaCl2 and 30 ng/µL calmodulin were preincubated for 15 min on ice and then added in the kinase reaction. The reactions were incubated at 30°C for 10 min and 25 µL of the reaction was spotted on Whatman P81 filter paper. The filter paper was washed 3 times in 0.5% phosphoric acid, air dried and counted using Beckman LS6500 multipurpose scintillation counter.
On to `CN(C)CCCn1cc(C2=C(c3c[nH]c4ccccc34)C(=O)NC2=O)c2ccccc21` [GF109203X, reference compound], for which the “inhibition of PKCα, in words” value was “potently and concentration-dependently inhibited”.

For another data set, the target named is T3, PKCδ (Homo sapiens, UniProt Q05655).
T3 construct: purchased SignalChem (Richmond, BC, Canada)
T3 sequence (Q05655 whole entry): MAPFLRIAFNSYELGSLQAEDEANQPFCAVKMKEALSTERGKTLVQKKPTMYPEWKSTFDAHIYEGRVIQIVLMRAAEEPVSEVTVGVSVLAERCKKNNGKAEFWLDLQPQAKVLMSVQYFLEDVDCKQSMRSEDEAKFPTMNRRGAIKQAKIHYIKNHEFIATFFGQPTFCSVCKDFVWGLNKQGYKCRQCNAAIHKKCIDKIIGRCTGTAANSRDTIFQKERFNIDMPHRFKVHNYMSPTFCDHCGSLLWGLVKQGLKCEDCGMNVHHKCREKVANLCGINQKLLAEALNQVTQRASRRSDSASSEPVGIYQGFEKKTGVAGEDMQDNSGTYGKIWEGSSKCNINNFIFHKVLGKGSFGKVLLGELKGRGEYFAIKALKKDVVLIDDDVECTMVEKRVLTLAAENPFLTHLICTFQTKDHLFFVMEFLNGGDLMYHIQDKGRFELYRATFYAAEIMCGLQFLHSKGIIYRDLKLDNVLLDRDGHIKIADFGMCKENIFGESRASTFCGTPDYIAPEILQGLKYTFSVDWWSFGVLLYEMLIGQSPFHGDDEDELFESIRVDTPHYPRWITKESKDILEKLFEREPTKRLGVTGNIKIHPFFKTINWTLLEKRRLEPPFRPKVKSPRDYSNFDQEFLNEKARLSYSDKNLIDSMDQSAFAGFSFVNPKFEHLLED
As to the kind of experiment: In vitro radiometric PKC kinase assay. Particulars: 0.1, 1 and 10 µM. The class given is biochemical. The procedure:
as §1
For the compound `CN(C)CCCn1cc(C2=C(c3c[nH]c4ccccc34)C(=O)NC2=O)c2ccccc21` [GF109203X, reference compound], the “inhibition of PKCδ, in words” value was “potently and concentration-dependently inhibited”.

System in a further data set: not given
Assay: not given
Conditions: not given
The term melting point denotes the temperature of the solid-liquid transition. In turn, `CNc1ncnc2c1c(-c1cccc3ccccc13)nn2C(C)(C)C` [Compound 1a, 1-(t-Butyl)-N-methyl-3-(naphthalen-1-yl)-1H-pyrazolo[3,4-d]pyrimidin-4-amine] had a melting point of 152.4 to 156.3 °C. `CNc1ncnc2c1c(-c1ccc(OC)cc1)nn2C(C)(C)C` [Compound 1c, 1-(t-Butyl)-3-(4-methoxyphenyl)-N-methyl-1H-pyrazolo[3,4-d]pyrimidin-4-amine] showed a melting point of 89.3 to 91.2 °C. The same measure, in the same setting: as for `CNc1nc(Cl)nc2c1c(-c1ccc(F)cc1)nn2C` [Compound 1o, 6-Chloro-3-(4-fluorophenyl)-N,1-dimethyl-1H-pyrazolo[3,4-d]pyrimidin-4-amine], the figure is 189.9 to 192.3 °C. Still for that read-out and setting: as for `CNc1nc(Cl)nc2c1c(-c1ccc(OC)cc1)nn2C` [Compound 1k, 6-Chloro-3-(4-methoxyphenyl)-N,1-dimethyl-1H-pyrazolo[3,4-d]pyrimidin-4-amine], the figure is 159.3 to 160.9 °C; as for `COc1ccc(-c2nn(C)c3nc(Cl)nc(N)c23)cc1` [Compound 1j, 6-Chloro-3-(4-methoxyphenyl)-1-methyl-1H-pyrazolo[3,4-d]pyrimidin-4-amine], greater than 250 °C; as for `COc1ccc(-c2nn(C)c3ncnc(N)c23)cc1` [Compound 1h, 3-(4-Methoxyphenyl)-1-methyl-1H-pyrazolo[3,4-d]pyrimidin-4-amine], 185 to 188 °C.
